Reference: patent publication US20250197407A1 (Jazz Pharmaceuticals Ireland Limited, priority 2022, published 2025)

Biological target: SOS1/KRAS WT (Homo sapiens (Human), UniProt Q07889)
Test: SOS1/KRAS WT HTRF binding assay (FRET-based protein-protein interaction)
Settings: inhibition of His6-SOS1 (aa564-1049, 40 nM) binding to GST-KRAS-WT (aa1-188, 40 nM); at least two independent replicates; read-out: SOS1/KRAS WT HTRF Binding assay pIC50 (converted)
Excerpt: The capacity of compounds to inhibit SOS1 binding to KRAS-WT (wild-type) was quantified using a FRET-based protein-protein interaction assay. The assay is based on the transfer of energy between two fluorophores, a donor and an acceptor, when in close proximity. In this instance, the donor is a Europium-conjugated α-GST antibody that binds to GST-tagged KRAS-WT, and the acceptor is an XL665-conjugated α-His 6 antibody that binds to His 6-tagged SOS1. Binding of SOS1 to KRAS-WT results in an increased fluorescent signal at emission wavelength of 665 nm which can be detected on the EnVision plate reader. Compounds that inhibit binding will reduce the 665 nm signal emitted. Recombinant KRAS-WT protein (40 nM; Human KRAS, aa1-188 recombinant protein with N-terminal GST-tag) and SOS1 protein (40 nM; Human SOS1 exchange domain, aa564-1049 with N-terminal 6His-tag) were mixed together in assay buffer (5 mM HEPES pH7.3, 150 mM NaCl, 10 mM EDTA, 5 mM MgCl2, 0.05% BSA, 0.0025% NP-40, 1 mM DTT and 100 mM KF) and incubated at room temperature with a dose response of compound in a 384-well low volume white plate and a final volume of 5 ul. After a 60 minute incubation, 5 ul of 4 nM anti-GST-Eu(K) (Cisbio, France) combined with 20 nM anti-6His-XL665 (Cisbio, France), diluted in assay buffer, was added to the plate. Following a further 4 hr incubation at room temperature, time-resolved fluorescence was measured on the EnVision plate reader. DMSO (0.05%) and 10 μM reference compound were used to generate the Max and Min assay signals, respectively. Data was analysed using a four-parameter logistic model to calculate IC50 values, with at least two independent replicates performed for each compound.
Data was analyzed using a four-parameter logistic model to calculate IC50 values, with at least two independent replicates performed for each compound.

Sequence of SOS1/KRAS WT (Q07889 564-1049): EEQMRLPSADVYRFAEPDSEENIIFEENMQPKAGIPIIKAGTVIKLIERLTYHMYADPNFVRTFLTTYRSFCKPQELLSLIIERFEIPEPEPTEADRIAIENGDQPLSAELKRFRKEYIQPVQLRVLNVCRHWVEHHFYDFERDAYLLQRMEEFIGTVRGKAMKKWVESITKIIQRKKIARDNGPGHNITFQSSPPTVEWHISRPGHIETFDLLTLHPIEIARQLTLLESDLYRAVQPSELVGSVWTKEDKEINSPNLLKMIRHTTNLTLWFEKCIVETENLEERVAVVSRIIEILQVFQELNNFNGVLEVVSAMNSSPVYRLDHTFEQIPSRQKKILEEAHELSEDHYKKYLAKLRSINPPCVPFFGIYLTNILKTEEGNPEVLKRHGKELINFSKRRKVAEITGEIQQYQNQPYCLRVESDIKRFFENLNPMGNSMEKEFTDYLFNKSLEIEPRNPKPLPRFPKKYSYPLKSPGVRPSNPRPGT

SMILES | IC50 [nM]
Cc1nnc(N[C@H](C)c2ccc3cn[nH]c3c2)c2cc3c(cc12)n(C)c(=O)n3C [Compound 57, 5-[[(1R)-1-(1H-indazol-6-yl)ethyl]amino]-1,3,8-trimethyl-imidazo[4,5-g]phthalazin-2-one] | 93.3
Cc1nnc(N[C@H](C)c2cccc(C(F)(F)C(C)(C)O)c2F)c2cc3c(cc12)C(C)(C)C(=O)N3C1CC1 [Compound 59, 1-cyclopropyl-3,3,5-trimethyl-8-[[(1R)-1-[3-(1,1-difluoro-2-hydroxy-2-methyl-propyl)-2-fluoro-phenyl]ethyl]amino]pyrrolo[2,3-g]phthalazin-2-one] | 7.94
Cc1nnc(N[C@H](C)c2cccc(C(F)F)c2F)c2cc3c(cc12)C(C)(C)C(=O)N3C1CC1 [Compound 62, 1-cyclopropyl-3,3,5-trimethyl-8-[[(1R)-1-[3-(difluoromethyl)-2-fluoro-phenyl]ethyl]amino]pyrrolo[2,3-g]phthalazin-2-one] | 10.7
Cc1nnc(N[C@H](C)c2cccc(C(F)(F)C(C)(C)O)c2)c2cc3c(cc12)n(C)c(=O)n3C [Compound 64, 1,3,8-trimethyl-5-[[(1R)-1-[3-(1,1-difluoro-2-hydroxy-2-methyl-propyl)phenyl]ethyl]amino]imidazo [4,5-g]phthalazin-2-one] | 8.13
Cc1c([C@@H](C)Nc2nnc(C)c3cc4c(cc23)N(C2CC2)C(=O)C4(C)C)cccc1C(F)(F)CO [Compound 66, 1-cyclopropyl-3,3,5-trimethyl-8-[[(1R)-1-[3-(1,1-difluoro-2-hydroxy-ethyl)-2-methyl-phenyl]ethyl]amino]pyrrolo[2,3-g]phthalazin-2-one] | 8.51
Cc1nnc(N[C@H](C)c2cccc(C(F)(F)C(C)(C)O)c2)c2cc3c(cc12)n(C)c(=O)n3C1CC1 [Compound 67, 3-cyclopropyl-1,8-dimethyl-5-[[(1R)-1-[3-(1,1-difluoro-2-hydroxy-2-methyl-propyl)phenyl]ethyl]amino]imidazo [4,5-g]phthalazin-2-one] | 7.41
Cc1c([C@@H](C)Nc2nnc(C)c3cc4c(cc23)n(C2CC2)c(=O)n4C)cccc1C(F)(F)CO [Compound 68, 3-cyclopropyl-1,8-dimethyl-5-[[(1R)-1-[3-(1,1-difluoro-2-hydroxy-ethyl)-2-methyl-phenyl]ethyl]amino]imidazo[4,5-g]phthalazin-2-one] | 9.55
Cc1c([C@@H](C)Nc2nnc(C)c3cc4c(cc23)N(C)C(=O)C4(C)C)cccc1C(F)(F)CO [Compound 69, 1,3,3,5-tetramethyl-8-[[(1R)-1-[3-(1,1-difluoro-2-hydroxy-ethyl)-2-methyl-phenyl]ethyl]amino]pyrrolo[2,3-g]phthalazin-2-one] | 9.12
Cc1nnc(N[C@H](C)c2cccc(C(F)(F)CO)c2)c2cc3c(cc12)n(C)c(=O)n3C1CC1 [Compound 70, 3-cyclopropyl-1,8-dimethyl-5-[[(1R)-1-[3-(1,1-difluoro-2-hydroxy-ethyl)phenyl]ethyl]amino]imidazo [4,5-g]phthalazin-2-one] | 11.5
Cc1c([C@@H](C)Nc2nnc(C)c3cc4c(cc23)N(C)C(=O)C42CCOCC2)cccc1C(F)(F)CO [Compound 72, 1,5-dimethyl-8-[[(1R)-1-[3-(1,1-difluoro-2-hydroxy-ethyl)-2-methyl-phenyl]ethyl]amino]spiro[pyrrolo [2,3-g]phthalazine-3,4′-tetrahydropyran]-2-one] | 9.77
COC1(C)C(=O)N(C)c2cc3c(N[C@H](C)c4cccc(C(F)(F)C(C)(C)O)c4F)nnc(C)c3cc21 (stereo partly drawn) [Compound 75, 3-methoxy-1,3,5-trimethyl-8-[[(1R)-1-[3-(1,1-difluoro-2-hydroxy-2-methyl-propyl)-2-fluoro-phenyl]ethyl]amino]pyrrolo[2,3-g]phthalazin-2-one] | 8.71
Cc1nnc(N[C@H](C)c2cccc(C(F)(F)C(C)(C)O)c2)c2cc3c(cc12)C(C)(C)C(=O)N3C [Compound 77, 1,3,3,5-tetramethyl-8-[[(1R)-1-[3-(1,1-difluoro-2-hydroxy-2-methyl-propyl)phenyl]ethyl]amino]pyrrolo [2,3-g]phthalazin-2-one] | 11.2
Cc1nnc(N[C@H](C)c2cccc(C(F)(F)CO)c2)c2cc3c(cc12)C(C)(C)C(=O)N3C(C)C [Compound 82, 1-isopropyl-3,3,5-trimethyl-8-[[(1R)-1-[3-(1,1-difluoro-2-hydroxy-ethyl)phenyl]ethyl]amino]pyrrolo [2,3-g]phthalazin-2-one] | 9.33
Cc1nnc(N[C@H](C)c2cccc(C(F)(F)C(C)(C)O)c2)c2cc3c(cc12)n(C)c(=O)n3C1(C)CC1 [Compound 83, 1,8-dimethyl-3-(1-methylcyclopropyl)-5-[[(1R)-1-[3-(1,1-difluoro-2-hydroxy-2-methyl-propyl)phenyl]ethyl]amino]imidazo [4,5-g]phthalazin-2-one] | 7.94

The remaining lines, values ahead:

IC50 [nM] | SMILES
6.61 | Cc1c([C@@H](C)Nc2nnc(C)c3cc4c(cc23)n(C2CC2)c(=O)n4C)cccc1C(F)(F)F [Compound 58]
209 | Cc1nnc(N[C@H](C)c2cccc3[nH]ncc23)c2cc3c(cc12)n(C)c(=O)n3C [Compound 60, 5-[[(1R)-1-(1H-indazol-4-yl)ethyl]amino]-1,3,8-trimethyl-imidazo[4,5-g]phthalazin-2-one]
100 | Cc1nnc(N[C@H](C)c2cccc3c(F)cn(C)c23)c2cc3c(cc12)n(C)c(=O)n3C [Compound 61, 1,3,8-trimethyl-5-[[(1R)-1-(3-fluoro-1-methyl-indol-7-yl)ethyl]amino]imidazo[4,5-g]phthalazin-2-one]
15.8 | CNCC(F)(F)c1cccc([C@@H](C)Nc2nnc(C)c3cc4c(cc23)n(C)c(=O)n4C)c1F [Compound 63, 1,3,8-trimethyl-5-[[(1R)-1-[3-[1,1-difluoro-2-(methylamino)ethyl]-2-fluoro-phenyl]ethyl]amino]imidazo[4,5-g]phthalazin-2-one]
9.77 | Cc1nnc(N[C@H](C)c2cccc(C(F)(F)C(C)(C)O)c2)c2cc3c(cc12)C(C)(C)C(=O)N3C1CC1 [Compound 65, 1-cyclopropyl-3,3,5-trimethyl-8-[[(1R)-1-[3-(1,1-difluoro-2-hydroxy-2-methyl-propyl)phenyl]ethyl]amino]pyrrolo [2,3-g]phthalazin-2-one]
6.92 | Cc1nnc(N[C@H](C)c2cccc(C(F)(F)C(C)(C)O)c2F)c2cc3c(cc12)C1(CCOCC1)C(=O)N3C [Compound 73, 1,5-dimethyl-8-[[(1R)-1-[3-(1,1-difluoro-2-hydroxy-2-methyl-propyl)-2-fluoro-phenyl]ethyl]amino]spiro[pyrrolo [2,3-g]phthalazine-3,4′-tetrahydropyran]-2-one]
912 | Cc1nnc(N[C@H](C)c2cccc(C(F)(F)F)n2)c2cc3c(cc12)n(C)c(=O)n3C [Compound 74, 1,3,8-trimethyl-5-[[(1R)-1-[6-(trifluoromethyl)-2-pyridyl]ethyl]amino]imidazo[4,5-g]phthalazin-2-one]
6.03 | Cc1c([C@@H](C)Nc2nnc(C)c3cc4c(cc23)n(C2(C)CC2)c(=O)n4C)cccc1C(F)(F)CO [Compound 76, 1,8-dimethyl-3-(1-methylcyclopropyl)-5-[[(1R)-1-[3-(1,1-difluoro-2-hydroxy-ethyl)-2-methyl-phenyl]ethyl]amino]imidazo[4,5-g]phthalazin-2-one]
9.55 | Cc1nnc(N[C@H](C)c2cccc(C(F)(F)CO)c2)c2cc3c(cc12)C(C)(C)C(=O)N3C [Compound 78, 1,3,3,5-tetramethyl-8-[[(1R)-1-[3-(1,1-difluoro-2-hydroxy-ethyl)phenyl]ethyl]amino]pyrrolo [2,3-g]phthalazin-2-one]
6.76 | Cc1c([C@@H](C)Nc2nnc(C)c3cc4c(cc23)N(C(C)C)C(=O)C4(C)C)cccc1C(F)(F)CO [Compound 79, 1-isopropyl-3,3,5-trimethyl-8-[[(1R)-1-[3-(1,1-difluoro-2-hydroxy-ethyl)-2-methyl-phenyl]ethyl]amino]pyrrolo[2,3-g]phthalazin-2-one]
6.17 | Cc1nnc(N[C@H](C)c2cccc(C(F)(F)CO)c2)c2cc3c(cc12)n(C)c(=O)n3C(C)(C)C [Compound 80, 3-tert-butyl-1,8-dimethyl-5-[[(1R)-1-[3-(1,1-difluoro-2-hydroxy-ethyl)phenyl]ethyl]amino]imidazo [4,5-g]phthalazin-2-one]
8.51 | Cc1nnc(N[C@H](C)c2cccc(C(F)(F)C(C)(C)O)c2)c2cc3c(cc12)C(C)(C)C(=O)N3C(C)C [Compound 81, 1-isopropyl-3,3,5-trimethyl-8-[[(1R)-1-[3-(1,1-difluoro-2-hydroxy-2-methyl-propyl)phenyl]ethyl]amino]pyrrol o[2,3-g]phthalazin-2-one]
